The values that follow come from article PMC10206061, “Suxiao Jiuxin Pill attenuates acute myocardial ischemia via regulation of coronary artery tone” (Frontiers in Pharmacology, 2023).

This assay concerns the target T1, Akt1 (Homo sapiens, UniProt P31749).
T1 construct: recombinant human Akt1 protein (1775-KS-010, Bio-Techne)
Nature of the assay: SPR (Biacore T200, Akt1 amine-coupled on CM5 chip, […] steady-state fit). It is filed as binding. (In general: SPR reads the build-up and loss of mass on a sensor chip optically.)

Each structure is given as a SMILES string. Where two headings read alike, the source gives them in different places.

T1 sequence (P31749 whole entry): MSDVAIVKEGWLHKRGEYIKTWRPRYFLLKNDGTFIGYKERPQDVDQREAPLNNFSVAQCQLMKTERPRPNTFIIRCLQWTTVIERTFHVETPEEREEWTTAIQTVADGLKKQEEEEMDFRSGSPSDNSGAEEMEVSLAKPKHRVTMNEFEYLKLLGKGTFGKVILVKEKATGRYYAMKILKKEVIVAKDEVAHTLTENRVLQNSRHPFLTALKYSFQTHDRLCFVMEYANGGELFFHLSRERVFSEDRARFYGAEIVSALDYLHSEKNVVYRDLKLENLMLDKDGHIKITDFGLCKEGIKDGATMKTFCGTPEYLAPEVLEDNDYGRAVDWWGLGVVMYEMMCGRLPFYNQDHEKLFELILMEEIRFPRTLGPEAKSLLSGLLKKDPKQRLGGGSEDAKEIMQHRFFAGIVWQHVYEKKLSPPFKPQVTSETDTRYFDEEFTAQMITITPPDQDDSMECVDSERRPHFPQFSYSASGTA

A word on the Kd: it is the equilibrium constant for the complex coming apart. Take `COc1cc2ccc(=O)oc2cc1O` [scopoletin]: the dissociation constant (Kd) (read-out: Kd) came to 11.1 µM.
On to `CCCC[C@@H]1OC(=O)C2=C1CCC=C2` [senkyunolide A], for which the affinity, expressed as Kd, was 752 µM.
